{
  "source": "patent US8367727B2",
  "about": "“Method of using abscisic acid to treat diseases and disorders” (priority 2006, dated 2013)",
  "key": {"[1]": {"system": "db/db mice", "assay": "WAT and skeletal muscle (SM) inflammation in db/db mice (Example 8)", "assay_type": "in vivo", "method": "WAT Digestion. […] The floating portion (adipocyte-rich portion), was then removed and digested for an addition 60 minutes at 37° C.\nQuantitative real-time reverse transcriptase PCR.\nComplementary DNA (cDNA) concentrations for genes of interest were examined by real-time quantitative PCR using an iCycler IQ System and the iQ SYBR green supermix (BioRad). A standard curve was generated for each gene using 10-fold dilutions of purified amplicons starting at 5 pg of cDNA and used later to calculate the starting amount of target cDNA in the unknowns."}, "[2]": {"system": "CD4+ T cells", "assay": "CFSE flow cytometry proliferation assay, Concanavalin A-stimulated splenocytes, CD4+ T cells", "assay_type": "cell-based, mice", "details": "100 mg ABA/kg diet; first 2 generations", "method": "Single cell suspensions were prepared from the spleen by gently crushing the spleens excised during the necropsy procedure between the frosted ends of microscope glass slides previously autoclaved. Tissue debris were removed by settling, erythrocytes were eliminated by hypotonic lysis and cells finally resuspended in complete RPMI (cRPMI, 10% fetal bovine serum (Hyclone, Logan, Utah), 25 mM HEPES buffer (Sigma, St. Louis, Mo.), 100 units/ml penicillin (Sigma), […] streptomycin (Sigma), 1 mM sodium pyruvate (Sigma), 1 mM nonessential aminoacids (Sigma), and 2 mM essential amino acids (Mediatech), and enumerated with a Coulter Z1 Single Particle Counter (Beckman Coulter, Miami, Fla.). […]\nSplenocytes at 10^6 cells/ml were seeded in 96-well, round-bottom microtiter plates and incubated incomplete RPMI with or without Concanavalin A (Sigma) at 2.5 μg/ml. […] Following 2 washes in Fluorescence activated cell sorting (FACS) buffer, cells were incubated with streptavidin-PeCy5 (Pharmingen, San Diego, Calif.) for the biotinylated anti-mouse CD4 antibody. Cells were analyzed by 3-color flow cytometry (CFSE, phycoerythrin and PeCy5) in a FACScalibur instrument (Becton Dickinson). Ten thousand events were acquired, and data were analyzed using the Cell Quest Pro™ software (Becton Dickinson). Proliferation was assessed by the decrease in fluorescent intensity of CFSE staining. […]"}},
  "data": [
    {"compound": "CC1=CC(=O)CC(C)(C)C1(O)/C=C/C(C)=C\\C(=O)O", "note": "(racemic) [ABA, abscisic acid]", "values": [
      {"measurement": "MCP-1 expression in SM", "setting": "[1]; ABA-fed mice", "result": "significantly downregulated"},
      {"measurement": "MCP-1 expression in stromal vascular cells (SVCs)", "setting": "[1]; ABA-fed mice", "result": "significantly downregulated"},
      {"measurement": "TNF-α expression in SM, control-fed db/db versus ABA-fed db/db mice", "setting": "[1]; P=0.03", "result": "approximately 2 fold"},
      {"measurement": "IMAT adipocyte hypertrophy", "setting": "[1]; db/db mice, 100 mg ABA/kg diet, 36 days", "result": "significantly attenuated"},
      {"measurement": "CCR2 and CCR5 macrophage infiltration into WAT", "setting": "[1]; dietary ABA-supplementation, 36 days", "result": "significantly decreased"},
      {"measurement": "CD4+ T cells RPI1", "setting": "[2]", "result": 17.72}
    ]}
  ]
}
